ChEMBL document CHEMBL4052670, “The selective cytotoxicity of new triazene compounds to human melanoma cells” (Bioorg Med Chem, 2017)

Experiments:
[1] = Half life in 80% human plasma by HPLC analysis; assay type: ADME, cell-free
Mushroom tyrosinase [2] = target: T1, Mushroom tyrosinase (Agaricus bisporus, UniProt O42713+Q00024+C7FF04+C7FF05); experiment: Ratio of Kcat to Km for mushroom tyrosinase-mediated compound oxidation; assay type: ADME
HaCaT = experiment: Cytotoxicity against human HaCaT cells after 72 hrs by MTS assay; assay type: cell-based
Mushroom tyrosinase [3] = target: T1, Mushroom tyrosinase; experiment: Drug metabolism assessed as mushroom tyrosinase-mediated compound hydrolysis by measuring retention time by HPLC method; assay type: ADME
[4] = Half life in phosphate buffered saline at pH 7.4 by HPLC analysis; assay type: physicochemical
[5] = Apparent partition coefficient, log P of the compound in 1-octanol/phosphate buffer at pH 7.4 measured after 30 mins by HPLC analysis; assay type: physicochemical; conditions: read-out: LogD7.4
[6] = Cytotoxicity against human MNT1 cells after 72 hrs by MTS assay; assay type: functional, cell-based; conditions: MNT-1, 72 h
Mushroom tyrosinase [7] = target: T1, Mushroom tyrosinase; experiment: (§1) Drug metabolism assessed as mushroom tyrosinase-mediated compound oxidation by Michaelis-Menten plot analysis; assay type: ADME
mushroom tyrosinase [8] = target: T2, mushroom tyrosinase (Agaricus bisporus, UniProt C7FF04+C7FF05+O42713+Q00024); experiment: as §1; assay type: ADME; conditions: mushroom tyrosinase
[9] = Prodrug activation assessed as mushroom tyrosinase-mediated compound hydrolysis by measuring half life in presence of 100 U/ml of tyrosinase by HPLC analysis; conditions: agaricus bisporus
B16-F10 = experiment: Cytotoxicity against mouse B16F10 cells after 72 hrs by MTS assay; assay type: functional, cell-based; conditions: B16-F10, 72 h
[10] = Stability of the compound in phosphate buffered saline at pH 7.4 assessed as parent compound remaining measured after 8 days by HPLC analysis; assay type: physicochemical; conditions: read-out: Stability
[11] = Prodrug activation assessed as mushroom tyrosinase-mediated compound hydrolysis by measuring Pseudo first-order rate constants in presence of 100 U/ml of tyrosinase by HPLC analysis; conditions: agaricus bisporus
mushroom tyrosinase [12] = target: T2, mushroom tyrosinase; experiment: Drug metabolism assessed as mushroom tyrosinase-mediated compound consumption in presence of 100 U/ml of tyrosinase by HPLC method; assay type: ADME; conditions: read-out: Drug metabolism
[13] = Half life in deuterated phosphate buffer at pH 7.8 by 1H-NMR spectra analysis; assay type: physicochemical
[14] = test system: N[C@@H](Cc1ccc(O)cc1)C(=O)O; experiment: (§2) Substrate activity at mushroom tyrosinase monophenolase activity by spectrophotometry based Michaelis-Menten plot analysis; conditions: Agaricus bisporus
NCCc1ccc(O)c(O)c1 = experiment: as §2; conditions: Agaricus bisporus
O=C(O)Cc1ccc(O)cc1 = experiment: as §2; conditions: Agaricus bisporus
[15] = Prodrug activation assessed as mushroom tyrosinase-mediated compound hydrolysis by measuring Pseudo first-order rate constants in presence of 300 U/ml of tyrosinase by HPLC analysis; conditions: agaricus bisporus
Plasma = experiment: Retention time of the compound in 80% human plasma by HPLC method; assay type: ADME, cell-free
[16] = Prodrug activation assessed as mushroom tyrosinase-mediated compound hydrolysis by measuring half life in presence of 300 U/ml of tyrosinase by HPLC analysis; conditions: agaricus bisporus
mushroom tyrosinase [17] = target: T2, mushroom tyrosinase; experiment: Drug metabolism assessed as mushroom tyrosinase-mediated compound consumption in presence of 300 U/ml of tyrosinase by HPLC method; assay type: ADME; conditions: read-out: Drug metabolism
[18] = Retention time of the compound in phosphate buffered saline at pH 7.4 by HPLC method

Sequence of Mushroom tyrosinase (Agaricus bisporus) (C7FF05 whole entry, looked up): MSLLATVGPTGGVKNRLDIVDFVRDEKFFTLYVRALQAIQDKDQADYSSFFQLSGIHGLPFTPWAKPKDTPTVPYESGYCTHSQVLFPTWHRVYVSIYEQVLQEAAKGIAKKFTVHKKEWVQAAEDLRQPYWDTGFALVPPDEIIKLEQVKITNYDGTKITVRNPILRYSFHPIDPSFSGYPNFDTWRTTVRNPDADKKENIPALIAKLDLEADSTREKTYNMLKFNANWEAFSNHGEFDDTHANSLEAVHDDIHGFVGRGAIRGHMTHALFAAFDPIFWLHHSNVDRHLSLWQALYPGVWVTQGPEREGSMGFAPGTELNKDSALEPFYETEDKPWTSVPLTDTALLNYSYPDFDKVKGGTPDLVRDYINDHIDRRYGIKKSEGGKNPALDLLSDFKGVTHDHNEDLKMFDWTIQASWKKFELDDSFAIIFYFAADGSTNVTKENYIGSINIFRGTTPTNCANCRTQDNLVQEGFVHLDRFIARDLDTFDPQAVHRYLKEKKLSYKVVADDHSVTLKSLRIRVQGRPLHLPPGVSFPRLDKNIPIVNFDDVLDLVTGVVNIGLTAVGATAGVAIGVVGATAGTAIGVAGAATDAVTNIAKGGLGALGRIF
Sequence of Mushroom tyrosinase (Agaricus bisporus) (C7FF04 whole entry, looked up): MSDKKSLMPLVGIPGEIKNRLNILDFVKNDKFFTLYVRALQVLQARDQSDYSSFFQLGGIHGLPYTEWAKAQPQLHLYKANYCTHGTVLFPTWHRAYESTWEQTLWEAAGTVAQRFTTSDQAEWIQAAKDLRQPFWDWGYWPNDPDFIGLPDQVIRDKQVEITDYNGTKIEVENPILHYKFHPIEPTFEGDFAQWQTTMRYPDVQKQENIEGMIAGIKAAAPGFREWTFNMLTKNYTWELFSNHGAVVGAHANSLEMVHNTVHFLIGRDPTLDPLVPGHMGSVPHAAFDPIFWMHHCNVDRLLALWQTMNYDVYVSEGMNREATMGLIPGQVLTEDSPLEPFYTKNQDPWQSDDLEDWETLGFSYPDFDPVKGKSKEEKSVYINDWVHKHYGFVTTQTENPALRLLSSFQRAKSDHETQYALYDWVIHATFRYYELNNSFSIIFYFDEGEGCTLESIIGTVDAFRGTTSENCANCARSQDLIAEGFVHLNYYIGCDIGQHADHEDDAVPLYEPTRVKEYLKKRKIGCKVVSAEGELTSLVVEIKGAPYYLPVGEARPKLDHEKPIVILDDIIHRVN
Sequence of Mushroom tyrosinase (Agaricus bisporus) (Q00024 whole entry, looked up): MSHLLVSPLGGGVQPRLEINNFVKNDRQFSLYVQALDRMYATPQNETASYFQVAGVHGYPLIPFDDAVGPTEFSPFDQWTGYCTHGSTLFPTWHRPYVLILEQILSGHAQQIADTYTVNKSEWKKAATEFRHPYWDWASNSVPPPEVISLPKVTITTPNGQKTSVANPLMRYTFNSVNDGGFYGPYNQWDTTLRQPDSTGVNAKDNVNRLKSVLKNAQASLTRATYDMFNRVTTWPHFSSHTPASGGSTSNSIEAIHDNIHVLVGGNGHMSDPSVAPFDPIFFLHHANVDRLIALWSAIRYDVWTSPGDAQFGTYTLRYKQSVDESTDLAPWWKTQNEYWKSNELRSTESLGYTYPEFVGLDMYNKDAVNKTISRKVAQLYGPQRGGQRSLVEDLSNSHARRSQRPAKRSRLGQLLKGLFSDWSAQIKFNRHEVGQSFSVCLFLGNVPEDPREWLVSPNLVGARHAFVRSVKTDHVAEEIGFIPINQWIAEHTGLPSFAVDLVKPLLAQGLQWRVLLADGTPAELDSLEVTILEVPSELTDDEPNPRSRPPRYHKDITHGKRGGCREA
Sequence of Mushroom tyrosinase (Agaricus bisporus) (O42713 whole entry, looked up): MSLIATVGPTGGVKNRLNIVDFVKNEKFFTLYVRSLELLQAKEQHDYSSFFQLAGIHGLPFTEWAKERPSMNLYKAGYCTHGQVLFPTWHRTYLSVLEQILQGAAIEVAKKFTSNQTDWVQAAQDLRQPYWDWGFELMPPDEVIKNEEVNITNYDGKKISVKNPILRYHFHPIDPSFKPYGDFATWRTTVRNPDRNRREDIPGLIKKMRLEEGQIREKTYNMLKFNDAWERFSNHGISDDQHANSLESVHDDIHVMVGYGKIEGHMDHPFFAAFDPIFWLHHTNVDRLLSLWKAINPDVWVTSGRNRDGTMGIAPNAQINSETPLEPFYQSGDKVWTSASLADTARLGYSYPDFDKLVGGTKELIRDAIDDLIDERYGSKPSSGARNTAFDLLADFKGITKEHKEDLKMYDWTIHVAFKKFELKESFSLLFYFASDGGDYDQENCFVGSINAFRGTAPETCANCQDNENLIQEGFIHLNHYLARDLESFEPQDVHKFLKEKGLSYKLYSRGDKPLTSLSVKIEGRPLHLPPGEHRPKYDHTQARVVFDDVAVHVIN

Compound	half-life [1]	IC50 (HaCaT)	half-life [4]	logD at 0.5 h [5]	IC50 [6]	t1/2 [9]	IC50 (B16-F10)	half-life [13]	also measured
CN(/N=N/c1ccc(C#N)cc1)C(=O)CCCCc1ccc(O)cc1	11.8 h	75 to 150 µM	82.5 h	4.3	> 75 µM	0.07 h	> 75 µM		Kcat/Km (Mushroom tyrosinase [2]): 1.39 M⁻¹ s⁻¹; Retention_time (Mushroom tyrosinase [3]): 9.8 min; Kcat (Mushroom tyrosinase [7]): 0.009 s⁻¹; Vmax (Mushroom tyrosinase [7]): 0.012 µM/min; Km (mushroom tyrosinase [8]): 860 µM
CN(/N=N/c1ccc(Br)cc1)C(=O)CCCCc1ccc(O)cc1	162 h	> 75 µM		4.32	45.8 µM	0.108 h	52.2 µM		remaining at 192 h [10]: 100%
COC(=O)c1ccc(/N=N/N(C)C(=O)CCc2ccc(O)cc2)cc1	7.3 h	75 to 150 µM	102 h	3.23	> 75 µM	0.041 to 0.0417 h	> 75 µM		K [11]: 4.7 ×10⁻³ /s; metabolised (mushroom tyrosinase [12]): 100%
Cn1nnc2c(C(N)=O)ncn2c1=O [TEMOZOLOMIDE]					> 75 µM		> 75 µM		
CCOc1nc(/N=N/N(C)C(=O)Oc2ccc([N+](=O)[O-])cc2)nc2[nH]cnc12								0.4 to 58.3 h	
CCOc1nc(/N=N/N(C)C(=O)Oc2ccc(C(=O)OC)cc2)nc2[nH]cnc12								0.4 to 58.3 h	
CN(/N=N/c1nc(OCc2ccccc2)c2nc[nH]c2n1)C(=O)Oc1ccc(C(N)=O)cc1								0.4 to 58.3 h	
CN(/N=N/c1nc(OCc2ccccc2)c2nc[nH]c2n1)C(=O)c1ccc([N+](=O)[O-])cc1								22.1 to 58.3 h	
CN(/N=N/c1nc(OCc2ccccc2)c2nc[nH]c2n1)C(=O)c1cccnc1								22.1 to 58.3 h	
CC(=O)c1ccc(/N=N/N(C)C(=O)CCc2ccc(OC(=O)CCc3ccc(O)cc3)cc2)cc1						0.0917 h			K [11]: 2.1 ×10⁻³ /s
CN(/N=N/c1nc(OCc2ccccc2)c2nc[nH]c2n1)C(=O)Oc1ccccc1								0.4 to 58.3 h	
CC(=O)c1ccc(/N=N/N(C)C(=O)CCCCc2ccc(O)cc2)cc1	32.7 h	> 100 µM		4	> 75 µM	0.0218 h	> 75 µM		remaining at 192 h [10]: 100%
Cc1ccc(/N=N/N(C)C(=O)CCCCc2ccc(O)cc2)cc1	79.7 h	> 150 µM		4	64.6 µM	0.0123 h	57.6 µM		remaining at 192 h [10]: 100%
Mushroom tyrosinase (Agaricus bisporus) (from UniProt O42713+Q00024+C7FF04+C7FF05)									Km [14]: 250 µM; Km (NCCc1ccc(O)c(O)c1): 280 µM; Km (O=C(O)Cc1ccc(O)cc1): 1910 µM
CC(=O)N(C)/N=N/c1nc(OCc2ccccc2)c2nc[nH]c2n1								22.1 to 58.3 h	
CN(/N=N/c1ccc(C(N)=O)cc1)C(=O)CCc1ccc(O)cc1	48.5 h	75 to 150 µM	118 h	2.8	> 75 µM	0.0767 to 0.077 h	> 75 µM		K [11]: 2.5 ×10⁻³ /s; metabolised (mushroom tyrosinase [12]): 100%
CN(/N=N/c1ccc(C(N)=O)cc1)C(=O)CCCCc1ccc(O)cc1	55.4 h	75 to 150 µM	182 h	3.6	> 75 µM	0.0967 h	> 75 µM		
CN(/N=N/c1ccc(C#N)cc1)C(=O)Cc1ccc(O)cc1	1.48 h		48 h	2.99		0.467 to 0.468 h			
CN(/N=N/c1ccc(C#N)cc1)C(=O)CCc1cccc(O)c1	2.7 h	75 to 150 µM	60.1 h	3.24	> 75 µM		> 75 µM		K [15]: 9.9 ×10⁻⁶ /s; Retention_time (Plasma): 8.8 min; t1/2 [16]: 19.45 h; metabolised (mushroom tyrosinase [17]): 91.1%
CCOC(=O)c1ccc(/N=N/N(C)C(=O)CCCCc2ccc(O)cc2)cc1	26.3 h	> 150 µM		4.5	> 75 µM	0.08 h	> 75 µM		remaining at 192 h [10]: 100%
Nc1ccccc1 [ANILINE]									Retention time (Mushroom tyrosinase [3]): 2 to 2.1 min; Retention_time (Plasma): 2 min; Retention time [18]: 2.4 min
COC(=O)c1ccc(/N=N/N(C)C(=O)CCc2ccc(OC(=O)CCc3ccc(O)cc3)cc2)cc1						0.107 h			K [11]: 1.8 ×10⁻³ /s
COC(=O)c1ccc(/N=N/N(C)C(=O)CCc2cccc(O)c2)cc1	7.8 h	75 to 150 µM	94.7 h	3.42	> 75 µM		> 75 µM		K [15]: 9.1 ×10⁻⁶ /s; Retention_time (Mushroom tyrosinase [3]): 12.3 min; t1/2 [16]: 21.17 h; Retention time [18]: 12.5 min; metabolised (mushroom tyrosinase [17]): 97.5%
CN(/N=N/c1ccc(C#N)cc1)C(=O)CCc1ccc(O)cc1	5.8 h	75 to 150 µM	76 h	3.4	> 75 µM	0.025 h	> 75 µM		K [11]: 7.9 ×10⁻³ /s; metabolised (mushroom tyrosinase [12]): 100%
CC(=O)Nc1ccc(OC(=O)N(C)/N=N/c2nc(OCc3ccccc3)c3nc[nH]c3n2)cc1								0.4 to 58.3 h	
CCOC(=O)N(C)/N=N/c1nc(OCc2ccccc2)c2nc[nH]c2n1								0.4 to 58.3 h	
CC(=O)c1ccc(/N=N/N(C)C(=O)CCc2ccc(O)cc2)cc1	14.6 h	75 to 150 µM	123 h	3.05	> 75 µM	0.06 to 0.061 h	> 75 µM		K [11]: 3.2 ×10⁻³ /s; metabolised (mushroom tyrosinase [12]): 100%
COC(=O)c1ccc(/N=N/N(C)C(=O)CCCCc2ccc(O)cc2)cc1	17.4 h	75 to 150 µM	124 h	3.9	> 75 µM	0.06 h	> 75 µM		Kcat/Km (Mushroom tyrosinase [2]): 13.88 M⁻¹ s⁻¹; Kcat (Mushroom tyrosinase [7]): 0.013 s⁻¹; Vmax (Mushroom tyrosinase [7]): 0.018 µM/min; Km (mushroom tyrosinase [8]): 1080 µM
CN(/N=N/c1nc(OCc2ccccc2)c2nc[nH]c2n1)C(=O)c1ccccc1								22.1 to 58.3 h	
CCOc1nc(/N=N/N(C)C(=O)Oc2ccc(S(N)(=O)=O)cc2)nc2[nH]cnc12								0.4 to 58.3 h	
